15 compounds from patent US10219516B2, “Molecules having pesticidal utility, and intermediates, compositions, and processes, related thereto” (priority 2015, dated 2019) can be followed below.

Like-named read-outs stand apart in the source and are kept apart here.

Common to all, as to assay type: in vivo
The subject of assay [1] is Beet Armyworm (Spodoptera exigua, LAPHEG). Nature of the assay: Bioassay on Beet Armyworm (BAW), 128-well diet tray assay. The method in brief: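 In a 128-well format, eight wells per compound received a surface dose of 50 μg/cm^2 on artificial diet. After drying, each well got one to five second instar larvae, held at 25° C. with 14:10 photoperiod. Mortality percentages after five to seven days were averaged.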

The test system of assay [2] is Cabbage Looper (Trichoplusia ni, TRIPNI). Nature of the assay: Bioassay on Cabbage Looper (CL), 128-well diet tray assay. The note with it: Trichoplusia ni. The method in brief:
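Second-instar larvae, one to five per well, placed on artificial diet treated with 50 μg/cm^2 test molecule in 90:10 acetone-water, dried before infestation. Held 5–7 days at 25° C, 14:10 light-dark; percent mortality averaged over eight wells.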

Assay [3] relates to Yellow Fever Mosquito (Aedes aegypti, AEDSAE). Nature of the assay: Bioassay on Yellow Fever Mosquito (YFM), 96-well plate larval assay. The following applies: for YFM (Biological Results, rating): Species YFM (Yellow Fever Mosquito); for YFM rating: Yellow Fever Mosquito, 96-well plate larval assay. The method in brief:
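Compound stocks at 4000 ppm in DMSO were diluted with 90:10 water/acetone, and 15 μL aliquots were dispensed into six replicate plates. About 1-day-old larvae in liver-powder water were added per well. Plates were covered and held at room temperature for 3 days before each well was scored for mortality.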

Where [4] appears, read: Species BAW (Beet Armyworm), read-out: BAW (Biological Results, rating).
Setting [5] is: Species CL (Cabbage Looper), read-out: CL (Biological Results, rating).
[6] abbreviates: Beet Armyworm, 128-well diet tray assay, read-out: BAW rating.
The mark [7] stands for this setting: Cabbage Looper, 128-well diet tray assay, read-out: CL rating.

Consider `N#Cc1cc(Cl)cc([C@H]2[C@H](C(=O)Nc3ccc(Cl)c(C(=O)Nc4ncc(F)cc4F)c3)C2(Cl)Cl)c1` (relative stereo) [F342, trans-2-Chloro-5-(2,2-dichloro-3-(3-chloro-5-cyanophenyl)cyclopropane-1-carboxamido)-N-(3,5-difluoropyridin-2-yl)benzamide], for which the pest or weed control at 50 µg/cm2 in assay [1] (setting [4]) and in assay [2] (setting [5]) was 50 to 100% in each case. Moreover, the “YFM (Biological Results, rating)” value in assay [3] is listed as “A (80-100)”.

As for `CN(C(=O)c1cc(NC(=O)[C@H]2[C@H](c3cc(Cl)cc(Cl)c3)C2(Cl)Cl)ccc1Cl)c1ccc(F)cc1C#N` (relative stereo) [F243, trans-2-Chloro-N-(2-cyano-4-fluorophenyl)-5-(2,2-dichloro-3-(3,5-dichlorophenyl)cyclopropane-1-carboxamido)-N-methylbenzamide], the pest or weed control at 50 µg/cm2 in assay [1] (setting [4]) and in assay [2] (setting [5]) was 50 to 100% in each case. In addition, the “YFM (Biological Results, rating)” value in assay [3] is listed as “A (80-100)”.

Regarding `Nc1c(F)cc(F)cc1NC(=O)c1cc(NC(=O)[C@H]2[C@H](c3cc(Cl)c(Cl)c(Cl)c3)C2(Cl)Cl)ccc1Cl` [F404, N-(2-Amino-3,5-difluorophenyl)-2-chloro-5-((1R,3R)-2,2-dichloro-3-(3,4,5-trichlorophenyl)cyclopropane-1-carboxamido)benzamide], the pest or weed control at 50 µg/cm2 in assay [1] (setting [6]) and in assay [2] (setting [7]) was 50 to 100% throughout. Moreover, in assay [3], the YFM rating entry is recorded as “A (80-100)”.

`Nc1cc(F)cc(NC(=O)c2cc(NC(=O)[C@H]3[C@H](c4ccc(F)c(Cl)c4)C3(Cl)Cl)ccc2Cl)c1` [F433, N-(3-Amino-5-fluorophenyl)-2-chloro-5-((1R,3R)-2,2-dichloro-3-(3-chloro-4-fluorophenyl)cyclopropane-1-carboxamido)benzamide]: the pest or weed control at 50 µg/cm2 in assay [1] (setting [6]) and in assay [2] (setting [7]) was 50 to 100% each time. The YFM rating result in assay [3] is given as “A (80-100)”.

Turning to `CNc1cc(NC(=O)c2cc(NC(=O)[C@H]3[C@H](c4cc(Cl)cc(Cl)c4)C3(Cl)Cl)ccc2Cl)ccc1F` (relative stereo) [F239, trans-2-Chloro-5-(2,2-dichloro-3-(3,5-dichlorophenyl)cyclopropane-1-carboxamido)-N-(4-fluoro-3-(methylamino)phenyl)benzamide], the pest or weed control at 50 µg/cm2 in assay [1] (setting [4]) and in assay [2] (setting [5]) was 50 to 100% throughout. For the same compound, the “YFM (Biological Results, rating)” value in assay [3] was “A (80-100)”.

With `O=C(Nc1nc2ccccc2o1)c1cc(NC(=O)C2C(c3cc(Cl)cc(Cl)c3)C2(Cl)Cl)ccc1Cl` (stereo not drawn) [F447, N-(Benzo[d]oxazol-2-yl)-2-chloro-5-(trans)-2,2-dichloro-3-(3,5-dichlorophenyl)cyclopropane-1-carboxamido)benzamide], the pest or weed control at 50 µg/cm2 in assay [1] (setting [6]) and in assay [2] (setting [7]) was 50 to 100% each time. Besides, in assay [3], the YFM rating entry is “A (80-100)”.

Take `O=C(Nc1ccc(F)cc1)c1cc(NC(=O)C2C(c3cc(Cl)cc(Cl)c3)[C@H]2Cl)ccc1Cl` (stereo partly drawn) [F213, 2-Chloro-5-((2R)-2-chloro-3-(3,5-dichlorophenyl)cyclopropane-1-carboxamido)-N-(4-fluorophenyl)benzamide]: the pest or weed control at 50 µg/cm2 in assay [1] (setting [4]) and in assay [2] (setting [5]) was 50 to 100% throughout. The “YFM (Biological Results, rating)” value in assay [3] was “A (80-100)”.

Turning to `O=C(Nc1c[nH]c(=O)[nH]c1=O)c1cc(NC(=O)[C@H]2[C@H](c3cc(Cl)cc(Cl)c3)C2(Cl)Cl)ccc1Cl` (relative stereo) [PF139, trans-2-Chloro-5-(2,2-dichloro-3-(3,5-dichlorophenyl)cyclopropane-1-carboxamido)-N-(2,4-dioxo-1,2,3,4-tetrahydropyrimidin-5-yl)benzamide], the pest or weed control at 50 µg/cm2 in assay [1] (setting [6]) and in assay [2] (setting [7]) was 50 to 100% each time. For the same compound, the YFM rating result in assay [3] is listed as “B (More than 0-Less than 80)”.

On to `CC(=O)Nc1ccc(NC(=O)c2cc(NC(=O)[C@H]3[C@H](c4cc(Cl)c(Cl)c(Cl)c4)C3(Cl)Cl)ccc2Cl)c(F)c1` (relative stereo) [PF42, trans-N-(4-Acetamido-2-fluorophenyl)-2-chloro-5-(2,2-dichloro-3-(3,4,5-trichlorophenyl)cyclopropane-1-carboxamido)benzamide], for which the pest or weed control at 50 µg/cm2 in assay [1] (setting [6]) and in assay [2] (setting [7]) was 50 to 100% throughout. In addition, the YFM rating result in assay [3] was “A (80-100)”.

For `O=C(Nc1cnc2cc[nH]c2c1)c1cc(NC(=O)C2C(c3cc(Cl)cc(Cl)c3)C2(Cl)Cl)ccc1Cl` (stereo not drawn) [F437, 2-Chloro-5-(trans)-2,2-dichloro-3-(3,5-dichlorophenyl)cyclopropane-1-carboxamido)-N-(1H-pyrrolo[3,2-b]pyridin-6-yl)benzamide], the pest or weed control at 50 µg/cm2 in assay [1] (setting [6]) and in assay [2] (setting [7]) was 50 to 100% throughout. Moreover, the YFM rating entry in assay [3] is listed as “B (More than 0-Less than 80)”.

In the case of `O=C(Nc1ccc(I)cc1F)c1cc(NC(=O)[C@H]2[C@H](c3cc(Cl)cc(Cl)c3)C2(Cl)Cl)ccc1Cl` (relative stereo) [F203, trans-2-Chloro-5-(2,2-dichloro-3-(3,5-dichlorophenyl)cyclopropane-1-carboxamido)-N-(2-fluoro-4-iodophenyl)benzamide], the pest or weed control at 50 µg/cm2 in assay [1] (setting [4]) and in assay [2] (setting [5]) was 50 to 100% each time. Further, the “YFM (Biological Results, rating)” value in assay [3] is given as “A (80-100)”.

In the case of `COc1ccc(NC(=O)c2cc(NC(=O)[C@H]3[C@H](c4cc(Cl)cc(Cl)c4)C3(Cl)Cl)ccc2Cl)c(Cl)n1` (relative stereo) [F552, 2-Chloro-N-(2-chloro-6-methoxypyridin-3-yl)-5-(trans-2,2-dichloro-3-(3,5-dichlorophenyl)cyclopropane-1-carboxamido)benzamide], the pest or weed control at 50 µg/cm2 in assay [1] (setting [6]) and in assay [2] (setting [7]) was 50 to 100% in each case. For the same compound, the YFM rating entry in assay [3] was “A (80-100)”.

For `O=C(Nc1ccc(-n2cnnc2)cc1)c1cc(NC(=O)[C@H]2[C@H](c3cc(Cl)cc(Cl)c3)C2(Cl)Cl)ccc1Cl` (relative stereo) [PF102, trans-N-(4-(4H-1,2,4-Triazol-4-yl)phenyl)-2-chloro-5-(2,2-dichloro-3-(3,5-dichlorophenyl)cyclopropane-1-carboxamido)benzamide], the pest or weed control at 50 µg/cm2 in assay [1] (setting [6]) and in assay [2] (setting [7]) was 50 to 100% each time. The YFM rating entry in assay [3] is reported as “A (80-100)”.

`N#Cc1cc(F)ccc1NC(=O)c1cc(NC(=O)[C@H]2[C@H](c3ccc(Cl)c(Cl)c3)C2(Cl)Cl)ccc1Cl` (relative stereo) [F190, trans-2-Chloro-N-(2-cyano-4-fluorophenyl)-5-(2,2-dichloro-3-(3,4-dichlorophenyl)cyclopropane-1-carboxamido)benzamide]: the pest or weed control at 50 µg/cm2 in assay [1] (setting [4]) and in assay [2] (setting [5]) was 50 to 100% in each case. For the same compound, the “YFM (Biological Results, rating)” value in assay [3] is listed as “A (80-100)”.

On to `Cc1cc(N)ccc1NC(=O)c1cccc(NC(=O)[C@H]2[C@H](c3cc(Cl)cc(Cl)c3)C2(Cl)Cl)c1` (relative stereo) [F266, trans-N-(4-Amino-2-methylphenyl)-3-(2,2-dichloro-3-(3,5-dichlorophenyl)cyclopropane-1-carboxamido)benzamide], for which the pest or weed control at 50 µg/cm2 in assay [1] (setting [4]) and in assay [2] (setting [5]) was 50 to 100% in each case. Further, the “YFM (Biological Results, rating)” value in assay [3] was “A (80-100)”.
